Among the test systems are CCRF-CEM leukemia; KM12 colon; MDA-MB-231 breast; MDA-MB-435; OVCAR-3 ovarian; OVCAR-8 ovarian; RXF 393 renal; SF-268 CNS; SN12C renal; UACC-62 melanoma.
Assay in all cases: NCI-60 cell line screen, 48 h

“And” between values parts separate entries of the source, which are not always exact repeats. Identical values can stand only once.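 All cell lines were grown in 96-well plates and treated with compound for 48 hours. The concentration for 50% growth inhibition is given as GI50. TGI: total growth inhibition.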

With `O=c1oc2cc(N=Cc3ccccc3Cl)ccc2c2ccccc12`, the TGI in the assay with CCRF-CEM leukemia, with KM12 colon, in the assay on MDA-MB-231 breast, with MDA-MB-435, with OVCAR-3 ovarian and in the assay on OVCAR-8 ovarian was > 100 µM throughout. The TGI with RXF 393 renal, in the assay on SF-268 CNS, in the assay on SN12C renal and with UACC-62 melanoma was > 100 µM each time.
Consider `COc1cc(-c2nn(-c3ccc(NC(=O)Nc4ccc(Cl)c(Cl)c4)cc3)cc2-c2ccncc2)ccc1Cl`, for which the GI50 in the assay on CCRF-CEM leukemia was 3.16 µM; in the assay on KM12 colon, 2.62 µM; in the assay with MDA-MB-231 breast, 2.62 µM; in the assay on MDA-MB-435, 2.87 µM; with OVCAR-3 ovarian, 3.02 µM; in the assay on OVCAR-8 ovarian, 3.49 µM. Moreover, the GI50 in the assay on RXF 393 renal was 2.16 µM; in the assay on SF-268 CNS it was 4.57 µM; in the assay on SN12C renal, 3.96 µM; with UACC-62 melanoma it was 3.35 µM. Moreover, the TGI in the assay with CCRF-CEM leukemia was > 100 µM; in the assay on KM12 colon, 7.41 µM; in the assay with MDA-MB-231 breast, 7.7 µM; in the assay on MDA-MB-435, 8.8 µM; in the assay on OVCAR-3 ovarian, 8.63 µM; in the assay with OVCAR-8 ovarian it was > 100 µM. In addition, the TGI in the assay with RXF 393 renal is 7.49 µM; with SF-268 CNS, > 100 µM; in the assay on SN12C renal, > 100 µM; in the assay with UACC-62 melanoma it was 13.3 µM.
With `NC(C/[N+]([O-])=N/O)C(=O)O` (stereo unspecified), the GI50 is > 29.3 µM and 11.3 µM in the assay with CCRF-CEM leukemia; 0.543 µM with KM12 colon; 11.7 µM and 17.9 µM and 10.6 µM in the assay on MDA-MB-435; 20.1 µM and 44.5 µM and 13 µM with OVCAR-3 ovarian; 93.2 µM and > 100 µM and 29 µM with RXF 393 renal; 6.55 µM and 2.88 µM and 5.56 µM with SF-268 CNS. Besides, the GI50 in the assay on SN12C renal was 14.6 µM and > 100 µM and 10.5 µM; with UACC-62 melanoma, 6.05 µM and 7.49 µM and 3.12 µM. In addition, the TGI in the assay on CCRF-CEM leukemia is > 100 µM and 418 µM; in the assay with KM12 colon it was 31.1 µM and > 100 µM and 144 µM; with MDA-MB-231 breast it was > 500 µM; in the assay on MDA-MB-435 it was > 500 µM; in the assay with OVCAR-3 ovarian it was > 100 µM and 342 µM; with OVCAR-8 ovarian it was > 100 µM and 459 µM. For the same molecule, the TGI with RXF 393 renal is > 100 µM and 381 µM; in the assay with SF-268 CNS it was > 482 µM; in the assay on SN12C renal, > 464 µM; with UACC-62 melanoma, > 100 µM and 81.9 µM.
With `COC(=O)CCC(C)[C@H]1CCC2C3C(C[C@H](OC(C)=O)[C@@]21C)[C@@]1(C)CCC2(C[C@H]1C[C@H]3OC(C)=O)OOC1(CCC(C)CC1)OO2` (stereo partly specified), the TGI with CCRF-CEM leukemia is > 100 µM; with KM12 colon, > 100 µM; in the assay on MDA-MB-231 breast it was > 100 µM; in the assay with MDA-MB-435, > 100 µM; in the assay with OVCAR-3 ovarian, > 100 µM and 72 µM; in the assay with OVCAR-8 ovarian it was > 100 µM. Further, the TGI with RXF 393 renal, with SF-268 CNS, in the assay with SN12C renal and in the assay with UACC-62 melanoma was > 100 µM throughout. The GI50 in the assay on KM12 colon is 4.03 µM and 38.7 µM; in the assay on MDA-MB-435, 10.9 µM and 43.4 µM; in the assay on OVCAR-8 ovarian, 8.64 µM and 26.2 µM; in the assay on SF-268 CNS, 8.26 µM and 32.8 µM.
In the case of `COc1cc(NS(C)(=O)=O)ccc1Nc1c2ccccc2nc2c(C)cccc12`, the GI50 in the assay with CCRF-CEM leukemia is 0.0322 µM and 0.0364 µM; in the assay with KM12 colon, 0.416 µM and 0.558 µM; in the assay on MDA-MB-231 breast it was 1.73 µM and 2.88 µM; with MDA-MB-435, 0.626 µM and 1.44 µM; in the assay with OVCAR-3 ovarian it was 0.794 µM and 0.933 µM; in the assay with OVCAR-8 ovarian, 0.233 µM and 0.23 µM. In addition, the GI50 in the assay on RXF 393 renal is 0.258 µM and 0.326 µM; in the assay on SF-268 CNS, 0.266 µM and 0.288 µM; in the assay on SN12C renal, 0.0961 µM and 0.087 µM; in the assay on UACC-62 melanoma, 0.182 µM and 0.211 µM. Also, the TGI in the assay with KM12 colon was 2.42 µM and 3.74 µM; with MDA-MB-231 breast, 7.01 µM and 15.3 µM; in the assay with MDA-MB-435, 11.9 µM and 18.1 µM; with OVCAR-3 ovarian, 2.35 µM and 2.94 µM; with OVCAR-8 ovarian, 7.08 µM and 11.6 µM; in the assay on RXF 393 renal it was 1.72 µM and 3.36 µM. Besides, the TGI was 13.6 µM and 14.2 µM with SF-268 CNS; 1.36 µM and 2.08 µM in the assay on SN12C renal; 2.97 µM and 4.19 µM with UACC-62 melanoma.
As to `COc1ccc(C[n+]2c3ccccc3n3c4ccc(N)cc4ccc32)c(OC)c1OC`, the GI50 in the assay on CCRF-CEM leukemia was 4.28 µM; in the assay on KM12 colon, 2.41 µM; in the assay on MDA-MB-231 breast, 9.25 µM; in the assay on MDA-MB-435, 2.92 µM; in the assay on OVCAR-3 ovarian, 1.69 µM; with OVCAR-8 ovarian, 6.48 µM. Further, the GI50 with RXF 393 renal was 6.3 µM; in the assay with SF-268 CNS, 2.42 µM; with SN12C renal it was 0.626 µM; in the assay with UACC-62 melanoma, 2.62 µM. Besides, the TGI with CCRF-CEM leukemia came to 45.7 µM; with KM12 colon, 13.7 µM; in the assay with MDA-MB-231 breast, 31.7 µM; with MDA-MB-435, 13.5 µM; with OVCAR-3 ovarian, 8.97 µM; with OVCAR-8 ovarian it was 32.5 µM. Further, the TGI in the assay with RXF 393 renal is 21.9 µM; in the assay on SF-268 CNS, 15.5 µM; in the assay on SN12C renal, 11 µM; with UACC-62 melanoma it was 10.9 µM.
Take `CC1=CC[C@@H]2C(C)(C)C(=O)CC[C@@]2(C)[C@@H]1COc1ccc2ccc(=O)oc2c1`: the GI50 is 5.48 µM with CCRF-CEM leukemia; 9.15 µM in the assay with KM12 colon; 25.5 µM in the assay with MDA-MB-231 breast; 11.9 µM with MDA-MB-435; 10.1 µM with OVCAR-3 ovarian; 5.69 µM in the assay with OVCAR-8 ovarian. Further, the GI50 in the assay on RXF 393 renal is 62 µM; with SF-268 CNS it was 23.3 µM; in the assay with SN12C renal, 27.3 µM; in the assay with UACC-62 melanoma, 5.22 µM. In addition, the TGI in the assay with CCRF-CEM leukemia is 70.9 µM; in the assay with KM12 colon it was 23.7 µM; with MDA-MB-231 breast it was > 100 µM; in the assay on MDA-MB-435, 29.9 µM; in the assay on OVCAR-3 ovarian, 56.9 µM; in the assay with OVCAR-8 ovarian, 39 µM. For the same molecule, the TGI in the assay with RXF 393 renal was > 100 µM; in the assay with SF-268 CNS, > 100 µM; with SN12C renal, > 100 µM; in the assay with UACC-62 melanoma, 23.5 µM.

For the origin of these results see PubChem BioAssay (NCI).
